Measured values from patent publication US4446047A, “Pleochroic anthraquinone dyes” (Imperial Chemical Industries PLC, priority 1981, dated 1984).

How the values were obtained:
[1] = Absorption maximum in liquid crystal medium E43; assay type: physicochemical; conditions: E43, 20° C.; for λmax: Table 4; for max: HPLC fractions, Table 3
Description: (§15) Detection was by means of a u.v. source (254 nm) and samples, corresponding to all the peaks in the chromatogram, were collected.

[2] = Order parameter in other liquid crystal media (hosts) / liquid crystal materials; assay type: physicochemical; conditions: general statement
Description: (§1) In order to provide maximum contrast between the two states it is important that the guest molecules adopt as closely as possible the time averaged orientation of the host, however this is achieved only to a limited degree because of random thermal fluctuations. The degree to which the orientation varies from the ideal is measured by a quantity known as the order parameter S which is given by the following equation: […]
where cos^2 θ is a time averaged term and θ is the instantaneous angular orientation of the molecules with respect to the time averaged orientation of the host molecules. The determination of the value of the order parameter S is well understood in the art, see for example the paper, "A new absorptive mode reflective liquid crystal display device", by D. L. White and G. N. Taylor in the Journal of Applied Physics, 1974, 45, pages […] to 4723.
(§2) The properties of some of the dyes described in the Examples were also measured in other liquid crystal media (hosts) at 20° C., unless otherwise stated, and the results are set out in Table 5.
(§3) The liquid crystal materials referred to in Table 5 as Hosts 1 to 12 have the following compositions:
(§4) Host 1 is the liquid crystal material E7, available from BDH Chemicals Ltd, which includes the compounds:
(§5) Host 2 is the liquid crystal material ZLI 1132, available from E Merck & Co, which includes the following compounds:
(§6) Host 3 is the liquid crystal material ZLI 1695, available from E Merck & Co, Darmstadt, West Germany. This has a clearing point (nematic to isotropic transition temperature) of 72° C.
(§7) Host 4 is a mixture of alkyl-cyanophenyl-dioxanes containing n-propyl, n-pentyl and n-heptyl chains.
(§8) Host 5 is the liquid crystal material ZLI 1565, available from E Merck & Co. This has a clearing point of 85° C.
(§9) Host 6 is the liquid crystal material ZLI 1624, available from E Merck & Co. This has a clearing point of 87° C.
(§10) Host 8 is the liquid crystal material RO-TN 430 available from Hoffmann La Roche Co. This has a clearing point of 69° C.
(§11) Host 9 is a mixed bicyclo-octane liquid crystal material containing the following compounds:
(§12) Host 10 is a mixture of liquid crystal materials based mainly on cyanobiphenyls and available from BDH Chemicals Ltd under the name E61.
(§13) Host 11 is a mixture of liquid crystal materials based mainly on cyanobiphenyls and available from BDH Chemicals Ltd under the name E49.
(§14) Host 12 is a mixture of fluorobicyclo(2,2,2)octane esters having negative anisotropy and containing a mixture of two compounds of the following formula: […]

[3] = Molar extinction coefficient in chloroform; assay type: physicochemical
Description: To a mixture of 9.4 g of 2,7-di-n-pentyl-4,5-dinitrochrysazin from Example 25(b) in 200 ml of pyridine at 20° C. there was added a solution of 2.2 ml of thiophenol in 50 ml of pyridine. The colour of the mixture gradually changed from orange-brown to red and after 2 hours at 20° C. was drowned into water, filtered, washed successively with water and methanol and dried to yield 9.5 g of product (88% theory). The structure was confirmed by mass spectrometry and elemental analysis, C=67.5 (67.5) H=5.8 (5.8) S=6.7 (6.0) and N=3.0 (2.7).
To a mixture of 1.7 ml of 4-t-butylphenylmercaptan and 0.4 g of KOH in 50 ml of isopropanol at 60° C. was added 3.7 g of the product of Example 25(c) and the temperature raised to 80° C. for 1.5 hour. It was then cooled to room temperature, filtered, washed successively with isopropanol and methanol and dried to give 3.5 g of product. After recrystallisation from petroleum ether, the structure was confirmed by mass spectrometry and elemental analysis, C=73.0 (73.6) H=6.5 (6.8) S=9.1 (9.8).
The process of Example 25(c) was repeated using 9.6 g of 2,7-n-heptyl-4,5-dinitrochrysazin in place of the 9.4 g of 2,7-di-n-pentyl-4,5-dinitrochrysazin. The structure was confirmed by mass spectrometry.
The process of Example 25(d) was repeated using 3.8 g of 2,7-di-n-heptyl-4-phenylthio-5-nitrochrysazin in place of the 3.7 g of 2,7-di-n-pentyl-4-phenylthio-5-nitrochrysazin. After recrystallisation from petroleum ether, the structure was confirmed by mass spectrometry.

[4] = Solubility in other liquid crystal media (hosts) / liquid crystal materials; assay type: physicochemical; conditions: general statement
Description: as §2, §3, §4, §5, §6, §7, §8, §9, §10, §11, §12, §13, §14

[5] = Order parameter in liquid crystal medium E43; assay type: physicochemical; conditions: E43, 20° C.
Description: as §1
where cos^2 θ is a time averaged term and θ is the instantaneous angular orientation of the molecules with respect to the time averaged orientation of the host molecules.

[6] = Solubility in liquid crystal material E43; conditions: E43, 20° C., HPLC fractions, Table 3
Description: The solubility of the product was measured in liquid crystal material E43 marketed by BDH Chemicals Limited of Broom Road, Poole, Dorset, England.
as §15

In the case of CCCCCCCc1cc(Sc2ccccc2)c2c(c1O)C(=O)c1c(O)c(CCCCCCC)cc(Sc3ccc(C(C)(C)C)cc3)c1C2=O [26(d), 2,7-Di-n-heptyl-4-phenylthio-5-(4-t-butylphenylthio)chrysazin], the λmax [1] was 592 nm, the “order parameter in liquid crystal materials (in words)” value [2] was “high” and the molar extinction coefficient ([3]; 592 nm) was 19,650. For the same molecule, the “solubility in liquid crystal materials (in words)” value [4] was “particularly good” and the “Order Parameter” value ([5]; Table 4) was 0.78.

With CC(CCc1cc(N)c2c(c1O)C(=O)c1c(Sc3ccccc3)cc(CCC(C)CC(C)(C)C)c(O)c1C2=O)CC(C)(C)C (stereo not shown) [Example 23(c), 1,5-dihydroxy-2,6-dinonyl-4-phenylthio-8-aminoanthraquinone] the λmax [1] was 565/610 and the “Order Parameter” value ([5]; Table 4) was 0.73.

In the case of CC(C)(C)c1ccc(Sc2ccc(Sc3ccccc3)c3c2C(=O)c2c(Sc4ccc(C(C)(C)C)cc4)ccc(Sc4ccc(C(C)(C)C)cc4)c2C3=O)cc1 [Fraction 2, tris-(t-butylphenylthio)-phenylthio-AQ], the max [1] was 550 nm and the “Order Parameter” value ([5]; HPLC fractions, Table 3) was 0.78.

In the case of O=C1c2cccc(Sc3ccc(-c4ccccc4)cc3)c2C(=O)c2cccc(Sc3ccccc3)c21 [Example 15, 1-phenylthio-5(4-phenylphenylthio)AQ], the λmax [1] was 460 nm and the “Order Parameter” value ([5]; Table 4) was 0.78.

In the case of CCCCCCCc1cc(Sc2ccccc2)c2c(c1O)C(=O)c1c(O)c(CCCCCCC)cc([N+](=O)[O-])c1C2=O [Example 26(c), 2,7-Di-n-heptyl-4-phenylthio-5-nitrochrysazin], the molar extinction coefficient ([3]; 540 nm) was 12,095.

In the case of “bis-(phenylthio)-bis-(t-butylphenylthio)AQ [Fraction 3a]”, the max [1] was 550 nm and the “Order Parameter” value ([5]; HPLC fractions, Table 3) was 0.78.

For CCCCCc1cc(Sc2ccccc2)c2c(c1O)C(=O)c1c(O)c(CCCCC)cc(Sc3ccc(C(C)(C)C)cc3)c1C2=O [Example 25(d), 2,7-di-n-pentyl-4-phenylthio-5-(4-t-butylphenylthio)chrysazin], the λmax [1] was 592 nm, the molar extinction coefficient ([3]; 592 nm) was 19,183 and the “Order Parameter” value ([5]; Table 4) was 0.77.

For CC(C)(C)c1ccc(Sc2ccc(N)c3c2C(=O)c2c(N)ccc(Sc4ccccc4)c2C3=O)cc1 [Example 18, 1-phenylthio-5(4-t-butylphenylthio)-4,8-diamino-AQ], the λmax [1] was 605 nm and the “Order Parameter” value ([5]; Table 4) was 0.73.

In the case of O=C1c2cccc(SC3CCCCC3)c2C(=O)c2cccc(Sc3ccccc3)c21 [Example 16, 1-phenylthio-5-cyclohexylthio-AQ], the λmax [1] was 465 nm and the “Order Parameter” value ([5]; Table 4) was 0.81.

With CCCCSc1cccc2c1C(=O)c1cccc(Sc3ccccc3)c1C2=O [Example 14, 1-phenylthio-5(n-butylthio)AQ] the λmax [1] was 470 nm and the “Order Parameter” value ([5]; Table 4) was 0.75.

For CCCCCCCCCCCCc1cc(Sc2ccccc2)c2c(c1O)C(=O)c1c(O)c(CCCCCCCCCCCC)cc(Sc3ccc(C(C)(C)C)cc3)c1C2=O [24(d), 1,8-dihydroxy-2,7-didodecyl-4-phenylthio-5-(4-t-butylphenylthio)-AQ], the λmax [1] was 590 nm and the “Order Parameter” value ([5]; Table 4) was 0.83.

For Cc1cccc(Sc2cccc3c2C(=O)c2cccc(Sc4ccccc4)c2C3=O)c1 [Example 12, 1-phenylthio-5(3-methylphenylthio)AQ], the λmax [1] was 464 nm and the “Order Parameter” value ([5]; Table 4) was 0.78.

For CC(C)(C)c1ccc(Sc2ccc(Sc3ccc(C(C)(C)C)cc3)c3c2C(=O)c2c(Sc4ccc(C(C)(C)C)cc4)ccc(Sc4ccc(C(C)(C)C)cc4)c2C3=O)cc1 (single isomer, unassigned) [1,4,5,8-tetrakis(4-t-butylphenylthio)anthraquinone, reference compound], the max [1] was 550 nm and the “Order Parameter” value ([5]; HPLC fractions, Table 3) was 0.78.

With CC(C)(C)c1ccc(Sc2cccc3c2C(=O)c2c(Sc4ccccc4)ccc(Sc4ccc(C(C)(C)C)cc4)c2C3=O)cc1 [Example 22, 1,5-di(4-t-butylphenylthio)-4-phenylthio-AQ] the λmax [1] was 520 nm and the “Order Parameter” value ([5]; Table 4) was 0.81.

In the case of CC(CCc1cc(Sc2ccccc2)c2c(c1O)C(=O)c1c([N+](=O)[O-])cc(CCC(C)CC(C)(C)C)c(O)c1C2=O)CC(C)(C)C (stereo not shown) [Example 23(a), 1,5-dihydroxy-2,6-dinonyl-4-phenylthio-8-nitroanthraquinone], the λmax [1] was 565/610 and the “Order Parameter” value ([5]; Table 4) was 0.72.

With CC(C)(C)c1ccc(Sc2ccc(Sc3ccccc3)c3c2C(=O)c2c(Sc4ccccc4)ccc(Sc4ccccc4)c2C3=O)cc1 [Fraction 5, tris-(phenylthio)-t-butylphenylthio-AQ] the max [1] was 550 nm and the “Order Parameter” value ([5]; HPLC fractions, Table 3) was 0.78.

For CC(CCc1cc(Sc2ccccc2)c2c(c1O)C(=O)c1c(Sc3ccccc3)cc(CCC(C)CC(C)(C)C)c(O)c1C2=O)CC(C)(C)C (stereo not shown) [Example 23(e), 1,5-dihydroxy-2,6-dinonyl-4,8-diphenylthio-AQ], the λmax [1] was 590 nm and the “Order Parameter” value ([5]; Table 4) was 0.77.

With CC(CCc1cc(Sc2ccccc2)c2c(c1O)C(=O)c1c(O)c(CCC(C)CC(C)(C)C)cc(Sc3ccccc3)c1C2=O)CC(C)(C)C (stereo not shown) [23(f), 1,8-dihydroxy-2,7-dinonyl-4,5-diphenylthio-AQ] the λmax [1] was 590 nm and the “Order Parameter” value ([5]; Table 4) was 0.72.

In the case of CC(CCc1cc(N)c2c(c1O)C(=O)c1c(O)c(CCC(C)CC(C)(C)C)cc(Sc3ccccc3)c1C2=O)CC(C)(C)C (stereo not shown) [23(d), 1,8-dihydroxy-2,7-di-nonyl-4-phenylthio-5-aminoanthraquinone], the λmax [1] was 565/610 and the “Order Parameter” value ([5]; Table 4) was 0.74.

With “bis-(phenylthio)-bis-(t-butylphenylthio)AQ [Fraction 4]” the max [1] was 550 nm and the “Order Parameter” value ([5]; HPLC fractions, Table 3) was 0.77.

In the case of “bis-(phenylthio)-bis-(t-butylphenylthio)AQ [Fraction 3]”, the Solubility [6] was < 0.5%.

For O=C1c2c(Sc3ccccc3)ccc(Sc3ccccc3)c2C(=O)c2c(Sc3ccccc3)ccc(Sc3ccccc3)c21 (single isomer, unassigned) [1,4,5,8-tetrakis(phenylthio)anthraquinone, reference compound], the max [1] was 550 nm and the “Order Parameter” value ([5]; HPLC fractions, Table 3) was 0.78.

For CCCCCc1cc(Sc2ccccc2)c2c(c1O)C(=O)c1c(O)c(CCCCC)cc([N+](=O)[O-])c1C2=O [Example 25(c), 2,7-Di-n-pentyl-4-phenylthio-5-nitrochrysazin], the molar extinction coefficient ([3]; 540 nm) was 12,541.

With Cc1ccc(Sc2cccc3c2C(=O)c2cccc(Sc4ccccc4)c2C3=O)cc1 [Example 13, 1-phenylthio-5(4-methylphenylthio)AQ] the λmax [1] was 464 nm and the “Order Parameter” value ([5]; Table 4) was 0.80.
